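Interpolation was linear, between the two tested concentrations surrounding the appropriate level; five concentrations were tested over 48 hours in 96-well plates. Here, GI50 denotes the concentration required for 50% inhibition of growth.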 The source made the active and inactive calls. No stated cut-off is given here; in the data, active = GI50 up to about 1.1 µM and inactive = higher.
Experiments:
Assay in all cases: DTP human tumour cell line panel, 48 h
UO-31 = system: UO-31
RXF 631 = system: RXF 631
HOP-62 = system: HOP-62
SK-OV-3 = system: SK-OV-3
OVCAR-8 = system: OVCAR-8
RXF 393 = system: RXF 393
HT-29 = system: HT-29
LXFL 529 = system: LXFL 529
OVCAR-5 = system: OVCAR-5
HCT-15 = system: HCT-15
Malme-3M = system: Malme-3M
TK-10 = system: TK-10
RPMI-8226 = system: RPMI-8226
ACHN = system: ACHN
NCI-H23 = system: NCI-H23
SR = system: SR
K562 = system: K562
UACC-257 = system: UACC-257
SK-MEL-5 = system: SK-MEL-5
NCI-H226 = system: NCI-H226
M14 = system: M14
A549 = system: A549
DMS-273 = system: DMS-273
LOX IMVI = system: LOX IMVI
SN12C = system: SN12C
HCT-116 = system: HCT-116
OVCAR-3 = system: OVCAR-3
SF-295 = system: SF-295
HL-60 = system: HL-60
HOP-18 = system: HOP-18
IGROV-1 = system: IGROV-1
SK-MEL-28 = system: SK-MEL-28
SF-539 = system: SF-539
SNB-78 = system: SNB-78
M19-MEL = system: M19-MEL
SW-620 = system: SW-620
DLD-1 = system: DLD-1
EKVX = system: EKVX
KM-20L2 = system: KM-20L2
CCRF-CEM = system: CCRF-CEM
A498 = system: A498
COLO 205 = system: COLO 205
NCI-H460 = system: NCI-H460
U-251 = system: U-251
XF498 = system: XF498
MOLT-4 = system: MOLT-4
KM12 = system: KM12
UACC-62 = system: UACC-62
OVCAR-4 = system: OVCAR-4
SNB-75 = system: SNB-75
786-0 = system: 786-0
HCC 2998 = system: HCC 2998
DMS-114 = system: DMS-114
SNB-19 = system: SNB-19
HOP-92 = system: HOP-92
SF-268 = system: SF-268
SK-MEL-2 = system: SK-MEL-2
NCI-H522 = system: NCI-H522
CAKI-1 = system: CAKI-1

O=S(=O)(/C=C/CS(=O)(=O)c1ccccc1)c1ccccc1
GI50 (UO-31): 42.5 µM (inactive)
GI50 (RXF 631): 24.7 µM (inactive)
GI50 (HOP-62): 24.9 µM (inactive)
GI50 (SK-OV-3): 29.3 µM (inactive)
GI50 (OVCAR-8): 16.9 µM (inactive)
GI50 (RXF 393): 26.9 µM (inactive)
GI50 (HT-29): 37.8 µM (inactive)
GI50 (LXFL 529): 29.1 µM (inactive)
GI50 (OVCAR-5): 47.1 µM (inactive)
GI50 (HCT-15): 17.5 µM
GI50 (Malme-3M): 29.6 µM (inactive)
GI50 (TK-10): 43.7 µM (inactive)
GI50 (RPMI-8226): 18.8 µM (inactive)
GI50 (ACHN): 53.3 µM (inactive)
GI50 (NCI-H23): 19.2 µM (inactive)
GI50 (SR): 1.66 µM (inactive)
GI50 (K562): 25.3 µM (inactive)
GI50 (UACC-257): 24.2 µM (inactive)
GI50 (SK-MEL-5): 40.8 µM (inactive)
GI50 (NCI-H226): 19.3 µM (inactive)
GI50 (M14): 23 µM (inactive)
GI50 (A549): 22.4 µM (inactive)
GI50 (DMS-273): 29.8 µM (inactive)
GI50 (LOX IMVI): 17.3 µM (inactive)
GI50 (SN12C): 25.3 µM (inactive)
GI50 (HCT-116): 19.1 µM (inactive)
GI50 (OVCAR-3): 26.5 µM (inactive)
GI50 (SF-295): 27.9 µM (inactive)
GI50 (HL-60): 15.1 µM (inactive)
GI50 (HOP-18): > 100 µM (inactive)
GI50 (IGROV-1): 39.8 µM (inactive)
GI50 (SK-MEL-28): 31.8 µM (inactive)
GI50 (SF-539): 20.3 µM (inactive)
GI50 (SNB-78): 26.7 µM (inactive)
GI50 (M19-MEL): 36.1 µM (inactive)
GI50 (SW-620): 20.9 µM (inactive)
GI50 (DLD-1): 23.6 µM (inactive)
GI50 (EKVX): 41.6 µM (inactive)
GI50 (KM-20L2): 29.2 µM (inactive)
GI50 (CCRF-CEM): 36.1 µM (inactive)
GI50 (A498): 27.5 µM (inactive)
GI50 (COLO 205): 36.1 µM (inactive)
GI50 (NCI-H460): 21.9 µM (inactive)
GI50 (U-251): 25.8 µM (inactive)
GI50 (XF498): 20.7 µM (inactive)
GI50 (MOLT-4): 21.2 µM (inactive)
GI50 (KM12): 13.8 µM (inactive)
GI50 (UACC-62): 21.5 µM (inactive)
GI50 (OVCAR-4): 35.6 µM (inactive)
GI50 (SNB-75): 36.1 µM (inactive)
GI50 (786-0): 24.3 µM (inactive)
GI50 (HCC 2998): 23.9 µM (inactive)
GI50 (DMS-114): 23.4 µM (inactive)
GI50 (SNB-19): 34.7 µM (inactive)
GI50 (HOP-92): 45 µM (inactive)
GI50 (SF-268): 26.9 µM (inactive)
GI50 (SK-MEL-2): 6.47 µM (inactive)

Cn1c(=O)nc2n(-c3cccc(Cl)c3)c3ccccc3nc-2c1=O
GI50 (UO-31): 34.9 µM (inactive)
GI50 (RXF 631): 13.5 µM (inactive)
GI50 (NCI-H522): 15.1 µM (inactive)
GI50 (HOP-62): 28.6 µM (inactive)
GI50 (SK-OV-3): 78.9 µM (inactive)
GI50 (CAKI-1): 33.7 µM (inactive)
GI50 (OVCAR-8): 18 µM (inactive)
GI50 (RXF 393): 21.5 µM (inactive)
GI50 (HT-29): 4.53 µM (inactive)
GI50 (LXFL 529): 18.6 µM (inactive)
GI50 (OVCAR-5): 22.5 µM (inactive)
GI50 (HCT-15): 13 µM
GI50 (Malme-3M): 3.5 µM (inactive)
GI50 (TK-10): 17 µM (inactive)
GI50 (RPMI-8226): 15.5 µM (inactive)
GI50 (ACHN): 3.63 µM (inactive)
GI50 (NCI-H23): 5.9 µM (inactive)
GI50 (K562): 14.1 µM (inactive)
GI50 (UACC-257): 10.9 µM (inactive)
GI50 (SK-MEL-5): 10.5 µM (inactive)
GI50 (NCI-H226): 22 µM (inactive)
GI50 (M14): 7.93 µM (inactive)
GI50 (A549): 11.4 µM (inactive)
GI50 (DMS-273): 9.55 µM (inactive)
GI50 (LOX IMVI): 18.7 µM (inactive)
GI50 (SN12C): 12.8 µM (inactive)
GI50 (HCT-116): 13.8 µM (inactive)
GI50 (OVCAR-3): 2.45 µM (inactive)
GI50 (SF-295): 16.6 µM (inactive)
GI50 (HOP-18): 12.2 µM (inactive)
GI50 (IGROV-1): 24.8 µM (inactive)
GI50 (SF-539): 16 µM (inactive)
GI50 (SNB-78): 23.7 µM (inactive)
GI50 (SW-620): 11.2 µM (inactive)
GI50 (EKVX): 12 µM (inactive)
GI50 (KM-20L2): 5.92 µM (inactive)
GI50 (CCRF-CEM): 19 µM (inactive)
GI50 (A498): 30.5 µM (inactive)
GI50 (COLO 205): 4.11 µM (inactive)
GI50 (NCI-H460): 6.4 µM (inactive)
GI50 (U-251): 15.3 µM (inactive)
GI50 (XF498): 19.9 µM (inactive)
GI50 (MOLT-4): 18.5 µM (inactive)
GI50 (KM12): 11.2 µM (inactive)
GI50 (UACC-62): 2.68 µM (inactive)
GI50 (OVCAR-4): 11.6 µM (inactive)
GI50 (SNB-75): 15.3 µM (inactive)
GI50 (786-0): 15.6 µM (inactive)
GI50 (HCC 2998): 10.7 µM (inactive)
GI50 (DMS-114): 6.34 µM (inactive)
GI50 (SNB-19): > 10 µM (inactive)
GI50 (SF-268): 18.2 µM (inactive)
GI50 (SK-MEL-2): 17.1 µM (inactive)

Reference: ChEMBL document CHEMBL1201862, “PubChem BioAssay data set” (2004)
